# In paper PMC13114161 (Antibiotics, 2026):
# Like-named read-outs stand apart in the source and are kept apart here.
# Columns and labels:
# P. aeruginosa ATCC 27853 [1] = experiment: MIC and levofloxacin potentiation (broth microdilution); assay type: cell-based, Pseudomonas aeruginosa; conditions: for MIC: Pseudomonas aeruginosa, ATCC27853
# Protocol: Once synthesized, the three fluorinated EPI analogs (TXA11114, TXA11164 and TXA12027) were first assayed for their antibacterial activities against P. aeruginosa ATCC 27853. They had MICs of 100, >200 and 100 µg/mL, respectively (Table 1). […] Particularly, the inactivity of TXA11164 was surprising as the pKa values of both the amines are similar to that in TXA11114.
# (§1) MIC assays for potentiation of antimicrobial activity against P. aeruginosa were performed as described previously.
# [2] = system: multidrug-resistant P. aeruginosa clinical isolates from the CDC-FDA; experiment: Levofloxacin MIC potentiation, CDC-FDA isolates; assay type: cell-based, Pseudomonas aeruginosa; conditions: for MIC: Pseudomonas aeruginosa; for Levofloxacin MIC fold difference, +EPI / Levofloxacin MIC, +EPI: EPI […] (TXA11114, TXA09155) or 50 μg/mL (MC-04,124, PAβN)
# Protocol: In a comparative study, the levofloxacin-potentiating activity of TXA11114 was evaluated alongside the well-characterized EPIs PAβN and MC-04,124 using P. aeruginosa clinical isolates obtained from the CDC and FDA Antimicrobial Resistance Isolate Bank and the Walter Reed Army Institute of Research (WRAIR). […] While PAβN has been widely studied in laboratory strains, its activity against the CDC/FDA P. aeruginosa panel has been reported only sparingly, limiting direct cross-study comparisons.
# as §1
# [3] = system: P. aeruginosa DA7232 (gyrA-T83I, parC-S80L); experiment: Levofloxacin MIC potentiation; assay type: cell-based, Pseudomonas aeruginosa; conditions: Pseudomonas aeruginosa, read-out: Levofloxacin MIC
# Protocol: as §1
# [4] = system: P. aeruginosa ATCC 27853 ompH mutants EPIR32, EPIR36, EPIR38; experiment: microbe, parasite or virus in culture; assay type: cell-based, Pseudomonas aeruginosa; conditions: Pseudomonas aeruginosa
# Protocol: as §1
# P. aeruginosa ATCC 27853 [5] = assay type: cell-based, Pseudomonas aeruginosa; conditions: ATCC 27853; levofloxacin 4× MIC (4 μg/mL) alone
# Protocol: OmpH is a homologous periplasmic chaperone that binds newly synthesized, unfolded outer membrane proteins (OMPs) and delivers them to the outer membrane for assembly by the BAM machinery, thereby preventing aggregation and facilitating proper membrane insertion.
# Frequency-of-resistance studies were carried out as described previously.
# P. aeruginosa ATCC 27853 [6] = experiment: Neutropenic murine thigh infection model; assay type: in vivo, CD-1 mice; conditions: for Mean Log10 CFU (thigh): +24 hr
# Protocol: Female CD-1 mice (6–8 weeks old; 22 ± 2 g) were obtained from Envigo Laboratories, quarantined for at least 3 days, and housed 5 per cage in accordance with the approved IACUC protocol (IACUC-2017-0049). Neutropenia was induced by intraperitoneal (IP) administration of cyclophosphamide (Cytoxan) at 150 mg/kg on day 4 and 100 mg/kg on day 1 prior to infection.
# Mice were infected intramuscularly (IM) in the right thigh with 0.1 mL of bacterial suspension containing approximately 1 × 10^5–10^6 CFU/mL. […] At 2 h or 24 h post-infection, mice were euthanized by CO2 asphyxiation, and thighs were aseptically excised and placed in 2 mL sterile phosphate-buffered saline (PBS) on ice. Tissue homogenization was performed using a Polytron PT10-35 (12 mm aggregate, Kinematica, Malters, Switzerland).
# Plates were incubated overnight at 37 °C, and colonies were enumerated the following day.
# CYP1A2 = target: T1, CYP1A2 (Homo sapiens, UniProt P05177); experiment: Cytochrome P450 inhibition; assay type: in vitro ADME; conditions: probe phenacetin; human liver microsomes; read-out: CYP Inhibition IC50, 1A2
# T1 construct: from tissue; host or cells: human liver microsomes
# T1 sequence (P05177 whole entry): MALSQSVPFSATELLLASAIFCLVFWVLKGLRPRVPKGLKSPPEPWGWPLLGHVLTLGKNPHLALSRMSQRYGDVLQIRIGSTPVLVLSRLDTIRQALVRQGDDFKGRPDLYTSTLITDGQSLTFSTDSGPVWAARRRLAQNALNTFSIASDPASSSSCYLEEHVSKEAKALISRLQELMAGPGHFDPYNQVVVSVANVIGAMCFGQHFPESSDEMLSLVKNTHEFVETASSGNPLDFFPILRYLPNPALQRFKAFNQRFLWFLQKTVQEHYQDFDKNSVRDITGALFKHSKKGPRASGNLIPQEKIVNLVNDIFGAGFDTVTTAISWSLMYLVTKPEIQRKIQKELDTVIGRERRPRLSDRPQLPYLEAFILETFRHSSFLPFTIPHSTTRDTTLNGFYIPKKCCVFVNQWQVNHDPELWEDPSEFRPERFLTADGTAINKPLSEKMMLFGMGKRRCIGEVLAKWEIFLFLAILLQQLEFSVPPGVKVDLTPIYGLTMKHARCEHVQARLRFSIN
# Protocol: (§2) Inhibition of CYP1A2, CYP2D6, CYP2C9, CYP2C19, and CYP3A4 by TXA11114 was assessed in human liver microsomes by measuring the inhibition of probe substrate metabolism. Phenacetin, bufuralol, diclofenac, S-mephenytoin, and midazolam were used as probe substrates for CYP1A2, CYP2D6, CYP2C9, CYP2C19, and CYP3A4, respectively. Corresponding metabolites (acetaminophen, OH-bufuralol, 4-OH diclofenac, 4-OH mephenytoin, and 1-OH midazolam) were quantified by LC-MS/MS. Selective inhibitors (fluvoxamine (CYP1A2), quinidine (CYP2D6), sulfaphenazole (CYP2C9), ticlopidine (CYP2C19), and ketoconazole (CYP3A4)) were used as positive controls. Test and control compounds, prepared in DMSO at various concentrations, were spiked into 2× microsomal reaction mixtures, and 50 µL aliquots were transferred to individual wells. Probe substrates (25 µL, 4× concentration) were added to the respective wells and pre-incubated for 5 min at 37 °C. Reactions were initiated by the addition of 25 µL NADPH (4×) and incubated for 5 min (CYP3A4), 10 min (CYP1A2, CYP2D6, CYP2C9), or 20 min (CYP2C19). Reactions were quenched with 100 µL ice-cold acetonitrile containing glipizide as an internal standard. Plates were centrifuged at 4000 rpm for 15 min, and 100 µL supernatants were analyzed by LC-MS/MS in MRM mode. […] Percent inhibition was calculated as 100 − percent activity. IC50 values were determined using GraphPad Prism (version 5.02).
# CYP2C19 = target: T2, CYP2C19 (Homo sapiens, UniProt P33261); experiment: Cytochrome P450 inhibition; assay type: in vitro ADME; conditions: probe S-mephenytoin; human liver microsomes; read-out: CYP Inhibition IC50, 2C19
# T2 construct: from tissue; host or cells: human liver microsomes
# T2 sequence (P33261 whole entry): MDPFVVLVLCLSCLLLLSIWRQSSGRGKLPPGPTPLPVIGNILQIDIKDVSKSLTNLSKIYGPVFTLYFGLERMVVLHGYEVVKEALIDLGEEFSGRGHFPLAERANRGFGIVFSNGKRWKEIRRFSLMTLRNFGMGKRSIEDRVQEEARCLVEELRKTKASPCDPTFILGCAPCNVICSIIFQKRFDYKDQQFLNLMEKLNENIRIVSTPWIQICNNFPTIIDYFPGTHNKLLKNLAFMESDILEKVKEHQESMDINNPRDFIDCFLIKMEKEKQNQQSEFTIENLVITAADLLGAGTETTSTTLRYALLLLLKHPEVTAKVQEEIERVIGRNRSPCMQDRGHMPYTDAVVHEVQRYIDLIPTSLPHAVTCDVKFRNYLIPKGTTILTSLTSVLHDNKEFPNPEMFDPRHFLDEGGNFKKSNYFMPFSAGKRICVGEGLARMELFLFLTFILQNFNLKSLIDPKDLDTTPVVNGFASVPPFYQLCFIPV
# Protocol: as §2
# CYP2C9 = target: T3, CYP2C9 (Homo sapiens, UniProt P11712); experiment: Cytochrome P450 inhibition; assay type: in vitro ADME; conditions: probe diclofenac; human liver microsomes; read-out: CYP Inhibition IC50, 2C9
# T3 construct: from tissue; host or cells: human liver microsomes
# T3 sequence (P11712 whole entry): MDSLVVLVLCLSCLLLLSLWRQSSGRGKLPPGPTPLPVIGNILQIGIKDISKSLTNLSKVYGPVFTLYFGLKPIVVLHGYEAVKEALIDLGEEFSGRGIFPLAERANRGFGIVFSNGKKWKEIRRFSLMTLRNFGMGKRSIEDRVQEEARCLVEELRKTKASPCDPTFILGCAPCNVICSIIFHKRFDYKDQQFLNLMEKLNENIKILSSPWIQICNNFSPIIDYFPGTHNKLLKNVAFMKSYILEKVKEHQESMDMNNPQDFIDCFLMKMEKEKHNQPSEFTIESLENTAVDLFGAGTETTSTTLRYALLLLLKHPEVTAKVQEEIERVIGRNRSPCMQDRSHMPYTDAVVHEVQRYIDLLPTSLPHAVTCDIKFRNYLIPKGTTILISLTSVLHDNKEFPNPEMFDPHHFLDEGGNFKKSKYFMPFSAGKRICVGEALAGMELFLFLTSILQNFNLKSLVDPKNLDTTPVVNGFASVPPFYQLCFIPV
# Protocol: as §2
# [7] = levofloxacin 10 mg/kg SC QID, alone or with TXA11114 30 mg/kg IV QID
structure (smiles),measurement,setting,value
"C[C@H]1COc2c(N3CCN(C)CC3)c(F)cc3c(=O)c(C(=O)O)cn1c23 [Levofloxacin, levofloxacin]",MIC,"P. aeruginosa ATCC 27853 [1]; ATCC 27853 parent strain (Table S1), read-out: MIC",1 µg/mL
same,MIC,"[2]; read-out: Levofloxacin MIC, No EPI, AR-0229",64 µg/mL
same,MIC,"[2]; read-out: Levofloxacin MIC, No EPI, AR-0232",8 µg/mL
same,MIC,"[2]; read-out: Levofloxacin MIC, No EPI, AR-0233",4 µg/mL
same,MIC,"[2]; read-out: Levofloxacin MIC, No EPI, AR-0234",8 µg/mL
same,MIC,"[2]; read-out: Levofloxacin MIC, No EPI, AR-0239",32 µg/mL
same,MIC,"[2]; read-out: Levofloxacin MIC, No EPI, AR-0242",8 µg/mL
same,MIC,"[2]; read-out: Levofloxacin MIC, No EPI, AR-0244",64 µg/mL
same,MIC,"[2]; read-out: Levofloxacin MIC, No EPI, AR-0246",64 µg/mL
same,MIC,"[2]; read-out: Levofloxacin MIC, No EPI, AR-0248",16 µg/mL
same,MIC,"[2]; read-out: Levofloxacin MIC, No EPI, AR-0249",64 µg/mL
same,MIC,"[2]; read-out: Levofloxacin MIC, No EPI, AR-0252",32 µg/mL
same,MIC,"[2]; read-out: Levofloxacin MIC, No EPI, AR-0253",2 µg/mL
same,MIC,"[2]; read-out: Levofloxacin MIC, No EPI, AR-0264",64 µg/mL
same,MIC,[3],256 µg/mL
same,MIC,"[4]; ATCC27853, EPIR32",0.25 µg/mL
same,MIC,"[4]; ATCC27853, EPIR38",0.5 µg/mL
same,Frequency of Resistance,P. aeruginosa ATCC 27853 [5],3.80 × 10^−8
same,Mean Log10 CFU (thigh),P. aeruginosa ATCC 27853 [6]; [7],7.41 log10 CFU
same,Mean Log10 CFU (thigh),"P. aeruginosa ATCC 27853 [6]; levofloxacin 15 mg/kg SC QID, alone or with TXA11114 30 mg/kg IV QID",5.97 log10 CFU
same,Mean Log10 CFU (thigh),"P. aeruginosa ATCC 27853 [6]; levofloxacin 20 mg/kg SC QID, alone or with TXA11114 30 mg/kg IV QID",4.47 log10 CFU
same,"Mean Log10 CFU Change vs +2 hr Control, Δlog10 (treatment-baseline), thigh",P. aeruginosa ATCC 27853 [6]; [7],1.33 log10 CFU
NC[C@@H]1CN[C@H](CNC(=O)c2cc3ccc(-c4ccc(F)cc4)cc3[nH]2)C1 [TXA09155],Fold MIC reduction [LVX/EPI-LVX],"P. aeruginosa ATCC 27853 [1]; EPI at […], ATCC 27853",16 fold
same,MIC,"P. aeruginosa ATCC 27853 [1]; EPI alone, ATCC 27853, read-out: EPI MIC",50 µg/mL
same,LVX MIC (+EPI),"P. aeruginosa ATCC 27853 [1]; levofloxacin MIC with EPI at […], ATCC 27853",0.063 µg/mL
same,"Levofloxacin MIC fold difference, +EPI",[2]; AR-0229,32 fold
same,"Levofloxacin MIC, +EPI",[2]; AR-0229,2 µg/mL
same,"Levofloxacin MIC fold difference, +EPI",[2]; AR-0232,16 fold
same,"Levofloxacin MIC, +EPI",[2]; AR-0232,0.5 µg/mL
same,"Levofloxacin MIC fold difference, +EPI",[2]; AR-0233,32 fold
same,"Levofloxacin MIC, +EPI",[2]; AR-0233,0.125 µg/mL
same,"Levofloxacin MIC fold difference, +EPI",[2]; AR-0234,16 fold
same,"Levofloxacin MIC, +EPI",[2]; AR-0234,0.5 µg/mL
same,"Levofloxacin MIC fold difference, +EPI",[2]; AR-0239,16 fold
same,"Levofloxacin MIC, +EPI",[2]; AR-0239,4 µg/mL
same,"Levofloxacin MIC, +EPI",[2]; AR-0242,1 µg/mL
same,"Levofloxacin MIC, +EPI",[2]; AR-0244,2 µg/mL
same,"Levofloxacin MIC fold difference, +EPI",[2]; AR-0246,"8, (8) fold"
same,"Levofloxacin MIC, +EPI",[2]; AR-0246,"8, (8) μg/mL"
same,"Levofloxacin MIC fold difference, +EPI",[2]; AR-0248,32 fold
same,"Levofloxacin MIC, +EPI",[2]; AR-0248,0.5 µg/mL
same,"Levofloxacin MIC fold difference, +EPI",[2]; AR-0249,32 fold
same,"Levofloxacin MIC, +EPI",[2]; AR-0249,2 µg/mL
same,"Levofloxacin MIC fold difference, +EPI",[2]; AR-0252,64 fold
same,"Levofloxacin MIC, +EPI",[2]; AR-0252,0.5 µg/mL
same,"Levofloxacin MIC fold difference, +EPI",[2]; AR-0253,64 fold
same,"Levofloxacin MIC, +EPI",[2]; AR-0253,0.031 µg/mL
same,"Levofloxacin MIC, +EPI",[2]; AR-0264,1 µg/mL
same,IC50 at 10 min,CYP1A2,> 100 µM
same,IC50 at 20 min,CYP2C19,> 100 µM
same,IC50 at 10 min,CYP2C9,> 100 µM
same,Improvement of levofloxacin efficacy in murine thigh or lung infection models,P. aeruginosa ATCC 27853 [6]; thigh or lung infection models,neither TXA01182 nor TXA09155 improved levofloxacin efficacy
